Data taken from the supplement of paper PMC11451515.

Experiments:
Settings in all cases: 48 h
[1] = system: NOMO1; experiment: cell viability relative to DMSO control; higher = less cytotoxic
Procedure, shortened: (§1)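 Library compounds in DMSO were pin-dosed into 1536-well plates (5 μl) holding NOMO1 or SEM (500 cells/well) or P12-Ichikawa (1000 cells/well) leukemia cells, across an 11-point threefold series of 47 μM to 0.79 nM. Each cell line had been adapted for at least four passages in each medium. CellTiter-Glo One luminescence was read after 48 h at 37°C. Viability is the per-plate percentage relative to DMSO wells, with cell-free wells as background.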

[2] = system: P12-Ichikawa; experiment: as above
Procedure, shortened: as §1

[3] = system: SEM cells; experiment: as above
Procedure, shortened: as §1

[4] = system: NOMO1; experiment: AUC of viability dose-response curve (% viability x log10 dose units); higher = less sensitive
Procedure, shortened: (§2)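 Leukemia cells adapted to each medium (500 or 1000 cells/well, 1536-well plates) were exposed to library compounds in DMSO for 48 h at 37°C at 11 threefold doses, 47 μM to 0.79 nM. Luminescence by CellTiter-Glo One was normalised per plate to DMSO and cell-free wells, then fitted with a four-parameter log-logistic curve on log10 dose. Curves above full viability were scaled and quality-control failures removed before area under the curve was integrated by trapezoidal rule.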

[5] = system: P12-Ichikawa; experiment: as above
Procedure, shortened: as §2

[6] = system: SEM cells; experiment: as above
Procedure, shortened: as §2

O=C(/C=C/c1cccnc1)NCCCCC1CCN(C(=O)c2ccccc2)CC1
cell viability [%]
Settings	[1]	[2]	[3]
HPLM + 10% dialyzed FBS, 0.000781 µM	102	103	76.5
HPLM + 10% dialyzed FBS, 0.00234 µM	59.8	72.1	86.3
HPLM + 10% dialyzed FBS, 0.00702 µM	33.1	15.1	22.7
HPLM + 10% dialyzed FBS, 0.0211 µM	17.4	7.38	9.57
HPLM + 10% dialyzed FBS, 0.0632 µM	13.1	5.18	7.6
HPLM + 10% dialyzed FBS, 0.19 µM	7.89	4.94	6.37
HPLM + 10% dialyzed FBS, 0.569 µM	6.3	4.8	6.62
HPLM + 10% dialyzed FBS, 1.71 µM	7.27	4.59	6.08
HPLM + 10% dialyzed FBS, 5.12 µM	9.47	4.4	6.74
HPLM + 10% dialyzed FBS, 15.4 µM	10.6	4	6.78
HPLM + 10% dialyzed FBS, 46.1 µM	6.73	2.9	5.79
RPMI 5 mM glucose + 10% FBS, 0.000781 µM	105	103	103
RPMI 5 mM glucose + 10% FBS, 0.00234 µM	110	109	65.1
RPMI 5 mM glucose + 10% FBS, 0.00702 µM	47	16.9	14.8
RPMI 5 mM glucose + 10% FBS, 0.0211 µM	28	6.84	7.35
RPMI 5 mM glucose + 10% FBS, 0.0632 µM	12.9	5.28	21.9
RPMI 5 mM glucose + 10% FBS, 0.19 µM	9.19	5.01	5.86
RPMI 5 mM glucose + 10% FBS, 0.569 µM	8.33	4.19	6.67
RPMI 5 mM glucose + 10% FBS, 1.71 µM	8.21	4.32	6.71
RPMI 5 mM glucose + 10% FBS, 5.12 µM	8.16	3.69	5.95
RPMI 5 mM glucose + 10% FBS, 15.4 µM	8.07	2.71	5.65
RPMI 5 mM glucose + 10% FBS, 46.1 µM	7.6	1.74	3.92
RPMI 5 mM glucose + 10% dialyzed FBS, 0.000781 µM	110	102	105
RPMI 5 mM glucose + 10% dialyzed FBS, 0.00234 µM	75.6	109	32
RPMI 5 mM glucose + 10% dialyzed FBS, 0.00702 µM	39	24.4	13.8
RPMI 5 mM glucose + 10% dialyzed FBS, 0.0211 µM	30.7	8.02	7.49
RPMI 5 mM glucose + 10% dialyzed FBS, 0.0632 µM	16.8	5.06	7.08
RPMI 5 mM glucose + 10% dialyzed FBS, 0.19 µM	9.73	4.88	6.77
RPMI 5 mM glucose + 10% dialyzed FBS, 0.569 µM	7.83	4.59	6.47
RPMI 5 mM glucose + 10% dialyzed FBS, 1.71 µM	8.77	4.67	6.21
RPMI 5 mM glucose + 10% dialyzed FBS, 5.12 µM	7.77	3.92	6.4
RPMI 5 mM glucose + 10% dialyzed FBS, 15.4 µM	8.34	2.96	7.09
RPMI 5 mM glucose + 10% dialyzed FBS, 46.1 µM	6.8	2.11	4.78

AUC of viability dose-response curve
Settings	HPLM + 10% dialyzed FBS	RPMI 5 mM glucose + 10% FBS	RPMI 5 mM glucose + 10% dialyzed FBS
[4]	102	125	113
[5]	81	93.4	98

CN(C1CCc2c(c3ccccc3n2CC(=O)O)C1)[S+](=O)([O-])c1ccc(F)cc1 (stereo not drawn)
AUC of viability dose-response curve
Settings	[4]	[5]	[6]
HPLM + 10% dialyzed FBS	383	399	461
RPMI 5 mM glucose + 10% FBS	392	401	425
RPMI 5 mM glucose + 10% dialyzed FBS	392	419	454

CC(C)C[C@@H](N)[C@H](O)C(=O)N[C@H](C(=O)N[C@H](C(=O)N[C@@H](CC(=O)O)C(=O)O)C(C)C)C(C)C
AUC of viability dose-response curve
Settings	[4]	[5]	[6]
HPLM + 10% dialyzed FBS	455	468	465
RPMI 5 mM glucose + 10% FBS	462	433	446
RPMI 5 mM glucose + 10% dialyzed FBS	463	450	477
